Measured values: paper PMC11383830, “TTK inhibitor OSU13 promotes immunotherapy responses by activating tumor STING” (JCI Insight, 2024)

Target: T1, LRRK2 (Homo sapiens, UniProt Q5S007)
T1 construct: LRRK2-NanoLuc fusion
Assay: NanoBRET in-cell target engagement, competitive displacement of K-9 tracer in transfected HEK293 cells
Type: cell-based

T1 sequence (Q5S007 whole entry, the tested form may be a part): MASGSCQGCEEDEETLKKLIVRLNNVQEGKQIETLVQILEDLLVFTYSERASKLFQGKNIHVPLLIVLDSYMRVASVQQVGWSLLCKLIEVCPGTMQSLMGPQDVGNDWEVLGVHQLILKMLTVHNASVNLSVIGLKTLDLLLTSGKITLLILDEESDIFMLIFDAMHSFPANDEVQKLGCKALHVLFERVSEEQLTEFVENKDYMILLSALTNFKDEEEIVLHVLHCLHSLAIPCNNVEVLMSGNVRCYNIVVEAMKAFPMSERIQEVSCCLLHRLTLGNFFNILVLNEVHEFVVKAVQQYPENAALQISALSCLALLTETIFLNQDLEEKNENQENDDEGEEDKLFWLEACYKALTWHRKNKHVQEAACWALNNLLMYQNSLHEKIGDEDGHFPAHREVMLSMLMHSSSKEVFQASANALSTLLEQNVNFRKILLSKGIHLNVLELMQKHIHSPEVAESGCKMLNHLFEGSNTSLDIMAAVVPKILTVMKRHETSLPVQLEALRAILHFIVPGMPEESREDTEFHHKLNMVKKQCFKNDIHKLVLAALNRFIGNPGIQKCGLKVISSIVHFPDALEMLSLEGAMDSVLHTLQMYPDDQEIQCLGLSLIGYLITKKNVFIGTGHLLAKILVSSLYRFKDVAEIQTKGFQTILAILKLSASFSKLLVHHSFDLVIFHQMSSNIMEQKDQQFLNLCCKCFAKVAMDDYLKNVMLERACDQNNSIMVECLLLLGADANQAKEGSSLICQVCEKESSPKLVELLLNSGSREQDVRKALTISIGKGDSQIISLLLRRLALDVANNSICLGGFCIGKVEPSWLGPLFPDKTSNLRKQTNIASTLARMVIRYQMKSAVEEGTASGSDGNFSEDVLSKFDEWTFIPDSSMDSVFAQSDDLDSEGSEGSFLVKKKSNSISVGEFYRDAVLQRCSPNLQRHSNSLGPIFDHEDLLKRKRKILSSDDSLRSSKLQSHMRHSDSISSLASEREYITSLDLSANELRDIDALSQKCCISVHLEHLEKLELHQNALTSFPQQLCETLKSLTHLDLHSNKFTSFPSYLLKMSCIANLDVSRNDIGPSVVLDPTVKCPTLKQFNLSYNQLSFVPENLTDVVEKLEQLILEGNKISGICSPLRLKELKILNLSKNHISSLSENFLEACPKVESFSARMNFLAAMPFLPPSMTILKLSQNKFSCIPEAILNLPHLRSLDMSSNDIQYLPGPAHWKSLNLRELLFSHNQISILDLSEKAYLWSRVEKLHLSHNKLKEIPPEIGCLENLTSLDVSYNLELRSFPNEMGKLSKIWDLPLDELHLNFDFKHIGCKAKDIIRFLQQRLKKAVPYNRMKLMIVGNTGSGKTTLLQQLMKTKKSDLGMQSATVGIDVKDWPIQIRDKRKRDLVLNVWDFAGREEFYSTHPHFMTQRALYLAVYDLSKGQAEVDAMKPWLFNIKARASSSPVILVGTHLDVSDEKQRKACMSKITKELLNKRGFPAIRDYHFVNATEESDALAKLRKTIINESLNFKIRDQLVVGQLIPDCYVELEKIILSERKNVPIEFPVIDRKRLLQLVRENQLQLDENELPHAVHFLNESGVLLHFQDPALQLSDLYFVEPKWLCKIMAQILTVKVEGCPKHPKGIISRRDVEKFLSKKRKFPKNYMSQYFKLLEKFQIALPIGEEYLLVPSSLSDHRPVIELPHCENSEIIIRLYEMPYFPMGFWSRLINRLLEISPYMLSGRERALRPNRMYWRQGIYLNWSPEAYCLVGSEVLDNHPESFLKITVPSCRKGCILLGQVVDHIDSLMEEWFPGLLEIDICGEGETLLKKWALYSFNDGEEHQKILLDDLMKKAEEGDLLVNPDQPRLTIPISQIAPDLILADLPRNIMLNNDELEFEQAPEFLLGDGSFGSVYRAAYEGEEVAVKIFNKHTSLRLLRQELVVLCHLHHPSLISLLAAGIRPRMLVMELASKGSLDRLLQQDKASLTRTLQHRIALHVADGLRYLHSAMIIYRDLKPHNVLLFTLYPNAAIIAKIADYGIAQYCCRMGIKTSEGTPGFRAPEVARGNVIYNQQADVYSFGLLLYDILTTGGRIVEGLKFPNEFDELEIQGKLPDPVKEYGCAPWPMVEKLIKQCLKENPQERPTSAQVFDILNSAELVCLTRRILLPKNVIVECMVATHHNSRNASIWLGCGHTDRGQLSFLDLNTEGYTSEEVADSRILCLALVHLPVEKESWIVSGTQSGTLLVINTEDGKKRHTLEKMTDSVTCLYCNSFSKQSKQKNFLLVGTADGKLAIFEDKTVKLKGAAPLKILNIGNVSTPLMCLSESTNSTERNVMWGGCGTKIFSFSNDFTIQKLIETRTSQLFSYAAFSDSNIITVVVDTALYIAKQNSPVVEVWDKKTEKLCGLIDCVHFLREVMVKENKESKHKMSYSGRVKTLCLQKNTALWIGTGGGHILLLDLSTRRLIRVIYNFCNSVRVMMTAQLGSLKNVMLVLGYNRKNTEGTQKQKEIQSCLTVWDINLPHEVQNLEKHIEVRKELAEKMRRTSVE

Work on OSU13 yielded an EC50 of 216 nM.
